Source: publication PMC6767403, “8‐Hydroxyquinolines are bactericidal against Mycobacterium tuberculosis” (Drug Development Research, 2019)
≈ marks a conversion by molar mass, not a printed value. Like-named read-outs stand apart in the source and are kept apart here.

Legend:
HepG2 human liver cells [1] = test: HepG2 cytotoxicity, CellTiter-Glo, 72 hr; settings: HepG2, 72 h, read-out: HepG2 IC50
[2] = Vero cell cytotoxicity, CellTiter-Glo, 2 days; format: cell-based; settings: African green monkey, 2 days exposure
Procedure: Vero cells (CCL81) were cultured in high‐glucose Dulbecco's modified Eagle medium with GlutaMax (Invitrogen), 10% v/v fetal bovine serum, 50 units/mL penicillin, and 50 μg/mL streptomycin. Cells were exposed to compounds for 2 days and viability was determined using CellTiter‐Glo (Promega).

M. tuberculosis H37Rv = test: microbe, parasite or virus in culture; format: cell-based, Mycobacterium tuberculosis
M. tuberculosis = test: Kill kinetics against replicating M. tuberculosis (CFU); format: cell-based, Mycobacterium tuberculosis; settings: replicating conditions; for bactericidal activity (in words): 7H9-OADC-Tw medium, 1× to 10× MIC
HepG2 human liver cells [3] = test system: HepG2 human liver cells
[4] = Mycobacterium tuberculosis, H37RV, 120 h, […], mean ± SD (n in parentheses), read-out: MIC

Row | Structure (SMILES) | IC50 (HepG2 human liver cells [1]) [µM] | IC50 at 2 days ([2]; Vero cells (CCL81)) [µM] | anti-tubercular activity (in words) (M. tuberculosis H37Rv) | MIC (M. tuberculosis H37Rv; [4]) [µM] | further results
1 | CNc1ccc2cccc(O)c2n1 [Compound 13] | 22 ± 2.8 | 8.2 | retained measurable anti‐tubercular activity | 6.4 ± 0.35 (≈ 1.11 µg/mL) | –
2 | Oc1ccc(CNc2cccc(Br)c2)c2cccnc12 [Compound 8] | 12 ± 0.5 | 7.5 | abrogated the anti‐tubercular activity | > 20 | –
3 | Oc1ccc(Br)c2cccnc12 [Compound 3] | 6.9 ± 0.59 | 1.8 | – | 2.9 ± 0.4 (≈ 0.65 µg/mL) | –
4 | Oc1ccc(Cl)c2cccnc12 [Compound 4] | 7.6 ± 1.5 | 2.4 | – | 3 ± 1 (≈ 0.539 µg/mL) | bactericidal activity (in words) (M. tuberculosis): bactericidal; logs of bacteria killed (M. tuberculosis; 12 μM (2.5× MIC) and higher, within 14 days): ≥ 3 logs
5 | CC(=O)Nc1ccc2cccc(O)c2n1 [Compound 17] | 9 ± 1 | 4.9 | not tolerated | > 20 | –
6 | Oc1cccc2ccc(Nc3ccccc3)nc12 [Compound 16] | 3.8 ± 0.45 | 0.94 | loss of activity | > 20 | –
7 | Oc1ccc(COC2CCCCC2)c2cccnc12 [Compound 7] | 4.9 ± 1.9 | 6.2 | – | 3.2 ± 0.85 (≈ 0.823 µg/mL) | –
8 | Cc1ccc(O)c2ncccc12 [Compound 2] | 6.5 ± 1.7 | 1.4 | – | 3.1 ± 1.1 (≈ 0.493 µg/mL) | –
9 | Cc1cc(C)n(-c2ccc3cccc(O)c3n2)n1 [Compound 19] | 12 ± 0.5 | 19 | – | > 20 | –
10 | O=[N+]([O-])c1ccc(O)c2ncccc12 [Compound 6] | 7.7 ± 1.8 | 2.9 | – | 4.8 ± 3.3 (≈ 0.913 µg/mL) | –
11 | Oc1cccc2ccc(/C=C/c3ccc4c(c3)OCO4)nc12 [Compound 23] | 9.1 ± 3 | 6 | – | 15 ± 5 (≈ 4.37 µg/mL) | –
12 | Oc1ccc(CN2CCN(c3ccc(F)cc3)CC2)c2cccnc12 [Compound 9] | 9.8 ± 2.2 | 5.8 | abrogated the anti‐tubercular activity | > 20 | –
13 | OCc1ccccc1CN1CCN(Cc2ccc3cccc(O)c3n2)CC1 [Compound 26] | 14 ± 0.5 | 11 | not tolerated | > 20 | –
14 | CN(C)c1ccc2cccc(O)c2n1 [Compound 14] | > 100 | > 50 | loss of activity | > 20 | –
15 | [O-][n+]1cccc2cccc(O)c21 [Compound 10] | < 88 | > 20 | loss of activity | > 20 | cytotoxicity against HepG2 cells (in words) (HepG2 human liver cells [3]): significant reduction of cytotoxicity
16 | Oc1cccc2ccc(N3CCCCC3)nc12 [Compound 15] | > 100 | > 50 | loss of activity | > 20 | –
17 | COc1cccc(/C=C/c2ccc3cccc(O)c3n2)c1 [Compound 21] | 10 ± 1 | 2.9 | – | 8.7 ± 0.2 (≈ 2.41 µg/mL) | –
18 | Nc1ccc2cccc(O)c2n1 [Compound 12] | 12 ± 0.5 | – | retained measurable anti‐tubercular activity | 4.6 ± 1.7 (≈ 0.737 µg/mL) | IC50 at 2 days ([2]; Vero cells): 3.3 µM
19 | COc1ccccc1/C=C/c1ccc2cccc(O)c2n1 [Compound 22] | 12 ± 2 | 6.2 | – | 13 ± 9.1 (≈ 3.61 µg/mL) | –
20 | Cc1ccc2cccc(O)c2n1 [Compound 11] | 28 ± 9 | – | not tolerated | > 20 | IC50 at 2 days ([2]; Vero cells): 12 µM
21 | Oc1cccc2ccc(/C=C/c3cccc(F)c3)nc12 [Compound 24] | 8 ± 0.6 | 7.2 | – | 13 ± 6.3 (≈ 3.45 µg/mL) | bactericidal activity (in words) (M. tuberculosis): bactericidal; log kill (sterilized the culture) (M. tuberculosis; 27 μM (10× MIC), within 14 days): > 4 log; logs of bacteria killed (M. tuberculosis; concentrations above 14 μM (5× MIC)): ≥ 2 logs
22 | Oc1cccc2cccnc12 [Compound 1, 8‐hydroxyquinoline] | 7.6 ± 0.68 | – | – | – | IC50 at 2 days ([2]; Vero cells): 1.4 µM; MIC (M. tuberculosis H37Rv): 3.6 ± 0.20 (2) μM; MIC (M. tuberculosis H37Rv; Mycobacterium tuberculosis, H37RV, 120 h): 3.6 µM (≈ 0.523 µg/mL)
23 | Oc1c(Cl)cc(Cl)c2cccnc12 [Compound 5] | 7.6 ± 1.2 | 1.3 | – | 8.4 (≈ 1.8 µg/mL) | MIC (M. tuberculosis H37Rv; […], mean ± SD (n in parentheses)): 8.4 ± 4.5 (6) μM
24 | Oc1cccc2ccc(/C=C/c3ccccc3Cl)nc12 [Compound 25] | 12 ± 1 | 9 | – | 5.8 ± 2.2 (≈ 1.63 µg/mL) | –
